From publication PMC11505029, “Isatin Bis-Imidathiazole Hybrids Identified as FtsZ Inhibitors with On-Target Activity Against Staphylococcus aureus” (Antibiotics, 2024)

Legend:
S. aureus MRSA 2 = assay: dose-response against clinical isolate MRSA 2; type: cell-based; details: Staphylococcus aureus, mean [95% confidence interval]
Description: (§1) The antimicrobial activity of the compounds was assessed by a well-established broth microdilution procedure in microtiter plates and in compliance with the Clinical and laboratory Standard Institute (CLSI) guidelines (Clinical and Laboratory Standards Institute, Wayne, PA, USA). In short, microbial inocula were prepared at 0.5 McFarland in PBS and, subsequently, bacterial suspensions were diluted 1:200 in Mueller–Hinton broth (Sigma-Aldrich, St. Louis, MO, USA), while fungal inoculum was diluted 1:20 in RPMI-1640 medium (Gibco®, ThermoFisher Scientific Inc., Waltham, MA, USA), containing 2% glucose and 0.3% levo-glutamine buffered to pH 7.0 with 0.165 M 3-(N-morpholino)propanesulfonic acid (MOPS). A total of 100 µL of these microbial suspensions were introduced in a 96-well microplate and incubated with 100 µL of the compounds, two-fold serially diluted in the range of 100–0.19 µM. Positive controls (microbial suspensions in regular media), negative controls (only compounds), and solvent controls (microbial suspensions incubated with DMSO dilutions) were included in the tests. The plate was incubated at 37 °C for 24 h, and subsequently, the optical density at 630 nm (OD630nm) was spectrophotometrically measured. Each experiment was carried out with three technical replicates (i.e., three wells per sample) and repeated at least two times for statistical power. […]

[1] = tested on: S. aureus ATCC 25923 biofilm; assay: antibiofilm activity, crystal violet staining; type: cell-based, Staphylococcus aureus; details: 200–25 µM; inhibition of biofilm production; CV staining
Description: For the evaluation of the bacterial biofilm formation, an established protocol with minor modifications was used. In short, a bacterial suspension of S. aureus ATCC 25923 was prepared in TSB (Tryptic Soy broth (TSB, Sigma-Aldrich, St. Louis, MO, USA) supplemented with 1% of glucose and adjusted to a final density of 10^5 CFU/mL. Aliquots of 100 µL of the culture were transferred to a 96-well flat-bottom polystyrene microplate, and then incubated at 37 °C for 90 min to promote bacterial adhesion. Thereafter, wells were slowly rinsed with PBS to remove non-attached cells, and 100 µL of medium containing the 2-fold serial dilutions of the compounds were added. After incubation at 37 °C for 24 h, the free-floating cells were removed, and the biofilms were carefully washed with PBS, and incubated for 1 h at 60 °C. Bacterial biomass was quantified by a standardized crystal violet (CV) staining. Briefly, 100 µL of CV solution (0.1% in water) were added to each well containing a completely air-dried biofilm, and incubated for 30 min at 37 °C. […] Finally, the colored supernatants were transferred to a new microplate and the OD550nm was read. The inhibitory effect of the compounds on biofilm production was evaluated in comparison to the positive control (S. aureus grown in absence of compounds), and negative control (only medium).

S. aureus MRSA 1 = assay: dose-response against clinical isolate MRSA 1; type: cell-based; details: Staphylococcus aureus, mean [95% confidence interval]
Description: as §1

S. aureus MRSA 5 = assay: dose-response against clinical isolate MRSA 5; type: cell-based; details: Staphylococcus aureus, mean [95% confidence interval]
Description: as §1

S. aureus ATCC 25923 = assay: broth microdilution antimicrobial activity, S. aureus reference strain; type: cell-based, Staphylococcus aureus
Description: (§2) Reference bacterial strains of Staphylococcus aureus (ATCC 25923), Escherichia coli (ATCC 25922), and Candida albicans (ATCC 10231) were used in this study as Gram-positive, Gram-negative, and fungal models, respectively. These reference strains were purchased from the American Type Culture Collection (ATCC, Manassas, VA, USA); bacterial cultures were routinely grown at 37 °C on 5% blood agar plate, while fungal cultures on Sabouraud Dextrose Agar (Biolife Italiana S.r.l., Milan, Italy).
(§3) The dry powder of the isatin derivatives was resuspended in dimethylsulfoxide (DMSO) at 20 mM and used as stock solutions. For biological investigations, compounds were used in the range 100–0.78 µM, and the solvent in the corresponding percentage range.
(§4) The antimicrobial activity of the compounds was assessed by a well-established broth microdilution procedure in microtiter plates and in compliance with the Clinical and laboratory Standard Institute (CLSI) guidelines (Clinical and Laboratory Standards Institute, Wayne, PA, USA). In short, microbial inocula were prepared at 0.5 McFarland in PBS and, subsequently, bacterial suspensions were diluted 1:200 in Mueller–Hinton broth (Sigma-Aldrich, St. Louis, MO, USA), while fungal inoculum was diluted 1:20 in RPMI-1640 medium (Gibco®, ThermoFisher Scientific Inc., Waltham, MA, USA), containing 2% glucose and 0.3% levo-glutamine buffered to pH 7.0 with 0.165 M 3-(N-morpholino)propanesulfonic acid (MOPS). A total of 100 µL of these microbial suspensions were introduced in a 96-well microplate and incubated with 100 µL of the compounds, two-fold serially diluted in the range of 100–0.19 µM. Positive controls (microbial suspensions in regular media), negative controls (only compounds), and solvent controls (microbial suspensions incubated with DMSO dilutions) were included in the tests. The plate was incubated at 37 °C for 24 h, and subsequently, the optical density at 630 nm (OD630nm) was spectrophotometrically measured. Each experiment was carried out with three technical replicates (i.e., three wells per sample) and repeated at least two times for statistical power. […] IC50 values, corresponding to the concentration of the compound giving rise to an inhibition of growth of 50%, were obtained by interpolation on dose–response curves generated by plotting the percentages of growth inhibition, relative to the positive control (set to 100% of growth), as a function of the tested concentrations (on a logarithm scale). Statistical analysis was carried out using GraphPad Prism version 9.4.1 for Windows (GraphPad Software, San Diego, CA, USA, www.graphpad.com).

S. aureus MRSA 4 = assay: dose-response against clinical isolate MRSA 4; type: cell-based; details: Staphylococcus aureus, mean [95% confidence interval]
Description: as §1

[2] = tested on: Vero cell line (ATCC CCL-81); assay: cell viability and proliferation assay (WST8/CCK-8); type: cell-based; details: 100 μM, viability relative to untreated controls, mean ± SD
Description: (§5) Vero cell line (ATCC CCL-81) was selected as the model system to assess the effect of the isatin hybrids on normal epithelial cells, and a previously established protocol was used with minor modifications. Briefly, cells were cultured in RPMI-1640 medium supplemented with 10% fetal bovine serum (FBS) (Carlo Erba Reagents, Milan, Italy), 100 U/mL penicillin, and 100 µg/mL streptomycin at 37 °C with 5% CO2. For experiments, cells were seeded into 96-well plates at 10^4 cells/well, and incubated at 37 °C for 24 h. Following washes with PBS, the cell monolayer was incubated with 100 µL of medium containing the 2-fold serial dilutions of the compounds. Both untreated cells and cells incubated with medium containing solvent dilutions were included in each experiment as controls. The cell viability was assessed by a WST8-based assay according to the manufacturer’s instructions (CCK-8, Cell Counting Kit-8, Dojindo Molecular Technologies, Rockville, MD, USA). After 48 h of incubation, culture medium was removed from each well, the monolayer was washed with PBS, and 100 µL of fresh medium containing 10 µL of CCK-8 solution were added. After 2 h at 37 °C, the OD450nm was read, and data were expressed as the percentage of the cell viability relative to the untreated controls. The CC50 was obtained from the corresponding dose–response curves generated, as previously reported for IC50 values.

[3] = as above; type: cell-based; details: African green monkey, Vero cells (ATCC CCL-81); Vero cells; mean [95% confidence interval]
Description: as §5

E. coli ATCC 25922 = assay: broth microdilution antimicrobial activity, E. coli reference strain; type: cell-based, Escherichia coli; details: 100 μM, growth relative to positive control, mean ± SD
Description: as §2, §3, §4

S. aureus MRSA 3 = assay: dose-response against clinical isolate MRSA 3; type: cell-based; details: Staphylococcus aureus, mean [95% confidence interval]
Description: as §1

Compound: O=C1Nc2cc(OC(F)(F)F)ccc2C1(c1c(Cl)nc2sccn12)c1c(Cl)nc2sccn12 [Compound 11, 3,3-bis(6-Chloroimidazo[2,1-b]thiazol-5-yl)-6-(trifluoromethoxy)indolin-2-one]
- IC50 (S. aureus MRSA 2): 27.5 µM
- biofilm biomass compared to the untreated control [1]: < 10%
- IC50 (S. aureus MRSA 1): 21.4 µM
- IC50 (S. aureus MRSA 5): 21.2 µM
- SI (selectivity index, CC50/IC50) (S. aureus ATCC 25923; CC50 Vero / IC50 S. aureus): 4.6
- IC50 (S. aureus ATCC 25923; Staphylococcus aureus, ATCC25923, S. aureus ATCC 25923, mean [95% confidence interval]): 13.8 µM
- IC50 (S. aureus MRSA 4): 11.3 µM
- Cell proliferation, Vero [2]: most toxic
- viability at 100 µM ([2]; Chlorocebus sabaeus, Vero, 48 h, read-out: Cell proliferation, Vero): 21.1 ± 3.3%
- CC50 at 48 h [3]: 63.3 µM
- Microbial growth, E. coli (E. coli ATCC 25922): did not inhibit the growth
- activity at 100 µM (E. coli ATCC 25922; Escherichia coli, ATCC25922, read-out: Microbial growth, E. coli): 108 ± 2.4%
- IC50 (S. aureus MRSA 3): 8.7 µM
